From article PMC12389269, “Heteroaryl-Capped Hydroxamic Acid Derivatives with Varied Linkers: Synthesis and Anticancer Evaluation with Various Apoptosis Analyses in Breast Cancer Cells, Including Docking, Simulation, DFT, and ADMET Studies” (Pharmaceuticals, 2025)
≈ marks a conversion by molar mass, not a printed value. Read-outs that look alike come from different tables or passages of the source.

Legend:
[1] = tested on: MCF-7 (Human Breast Cancer Cell Line); test: SRB antiproliferative assay, MCF-7; type: cell-based
Experimental: (§1) Following an extensive review of the literature, we selected human breast cancer (MCF-7, MDA-MB-231) and lung cancer (A549) cell lines to evaluate the anticancer potential of the synthesized compounds, and some compounds with good anti-proliferation activity were again tested to evaluate their cytotoxic potential on A-549, MCF-7, and MDA-MB-231. The same were also tested on one non-cancerous/normal (HEK-293) cell line. All the cell lines for the required screening were developed in a suitable medium comprising 10% FBS and 2mM L-glutamine. Cancerous and non-cancerous/normal cell lines were selected for the cell proliferation and cytotoxicity assay and maintained with 5% CO2 at 37 °C in a CO2 incubator with 100% relative humidity for one complete day before the addition of experimental drugs.
(§2) Antiproliferative activity through an SRB assay was performed for all the synthesized compounds on A-549 and MCF-7 cell lines. Around 5000 cells/well were quarantined into a 96-well microtiter plate in 100 μL. The synthesized compounds were solubilized in DMSO and diluted to different concentrations before use. The final-drug-concentration aliquots were poured into microtiter wells, and the plates were incubated for 48 h in regular conditions. After adding the final drug concentration, the cells were allowed to set in place and incubated for 60 min. A total of 50 µL of SRB solution (0.4% w/v) in 1% CH3COOH was poured into each well. The plates were then incubated for 20 min at RT. During subsequent staining, the unbounded dye was removed, and the plate reader recorded the eluted bound stain at 540 nm with a 690 nm reference wavelength. The assay was performed precisely using the appropriate reagents and reaction situation, as per the reported procedure. ADR was selected as the reference drug.

[2] = tested on: A-549 (Human Lung Cancer Cell Line); test: SRB antiproliferative assay, A-549; type: cell-based
Experimental: as §1, §2

HDAC1 = biological target: T1, HDAC1 (Homo sapiens, UniProt Q13547); test: HDAC inhibition assay (color de lys ELISA kit), HDAC1; type: biochemical; details: HeLa nuclear extract as source of HDAC activity
T1 construct: The HeLa nuclear extract was used as a source of HDAC activity; host or cells: HeLa (nuclear extract / cells)
T1 sequence (Q13547 whole entry): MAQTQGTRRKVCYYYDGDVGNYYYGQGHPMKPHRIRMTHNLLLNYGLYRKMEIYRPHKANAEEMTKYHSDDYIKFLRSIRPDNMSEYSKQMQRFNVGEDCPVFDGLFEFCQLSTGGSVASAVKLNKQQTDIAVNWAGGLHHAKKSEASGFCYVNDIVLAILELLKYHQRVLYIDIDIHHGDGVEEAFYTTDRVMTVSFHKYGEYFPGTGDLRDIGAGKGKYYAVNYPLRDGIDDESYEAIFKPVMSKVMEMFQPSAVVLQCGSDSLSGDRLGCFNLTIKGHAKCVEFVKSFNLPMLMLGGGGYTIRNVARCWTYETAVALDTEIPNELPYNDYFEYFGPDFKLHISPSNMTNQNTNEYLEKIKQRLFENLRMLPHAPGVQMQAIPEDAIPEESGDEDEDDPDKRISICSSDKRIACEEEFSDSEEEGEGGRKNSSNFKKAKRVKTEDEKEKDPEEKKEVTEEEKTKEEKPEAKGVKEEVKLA
Experimental: (§3) SAHA served as the assay’s positive control. The HeLa nuclear extract was used as a source of HDAC activity. The trypsinized HeLa cells were tallied, put into 96-well microtiter plates, and nurtured. Samples and the standard were placed in wells at a concentration of 100 µL. The culture environment was maintained as per the procedure. 3,3′,5,5′-tetramethylbenzidine (TMB) was included for visualization. Finally, 50 µL of halt solution was smeared. The samples and different SAHA concentrations (0.01, 0.1, 1, 10 μM) were introduced to the appropriate well and left for 72 h. BioTek Epoch (Winooski, VT, USA) microplate reader was used to quantify optical density at 450 nm. The Graph Pad Prism 5 helped to determine the IC50 values.

HDAC6 = biological target: T2, HDAC6 (Homo sapiens, UniProt Q9UBN7); test: HDAC inhibition assay (color de lys ELISA kit), HDAC6; type: biochemical; details: HeLa nuclear extract as source of HDAC activity
T2 construct: The HeLa nuclear extract was used as a source of HDAC activity; host or cells: HeLa (nuclear extract / cells)
T2 sequence (Q9UBN7 1-1215): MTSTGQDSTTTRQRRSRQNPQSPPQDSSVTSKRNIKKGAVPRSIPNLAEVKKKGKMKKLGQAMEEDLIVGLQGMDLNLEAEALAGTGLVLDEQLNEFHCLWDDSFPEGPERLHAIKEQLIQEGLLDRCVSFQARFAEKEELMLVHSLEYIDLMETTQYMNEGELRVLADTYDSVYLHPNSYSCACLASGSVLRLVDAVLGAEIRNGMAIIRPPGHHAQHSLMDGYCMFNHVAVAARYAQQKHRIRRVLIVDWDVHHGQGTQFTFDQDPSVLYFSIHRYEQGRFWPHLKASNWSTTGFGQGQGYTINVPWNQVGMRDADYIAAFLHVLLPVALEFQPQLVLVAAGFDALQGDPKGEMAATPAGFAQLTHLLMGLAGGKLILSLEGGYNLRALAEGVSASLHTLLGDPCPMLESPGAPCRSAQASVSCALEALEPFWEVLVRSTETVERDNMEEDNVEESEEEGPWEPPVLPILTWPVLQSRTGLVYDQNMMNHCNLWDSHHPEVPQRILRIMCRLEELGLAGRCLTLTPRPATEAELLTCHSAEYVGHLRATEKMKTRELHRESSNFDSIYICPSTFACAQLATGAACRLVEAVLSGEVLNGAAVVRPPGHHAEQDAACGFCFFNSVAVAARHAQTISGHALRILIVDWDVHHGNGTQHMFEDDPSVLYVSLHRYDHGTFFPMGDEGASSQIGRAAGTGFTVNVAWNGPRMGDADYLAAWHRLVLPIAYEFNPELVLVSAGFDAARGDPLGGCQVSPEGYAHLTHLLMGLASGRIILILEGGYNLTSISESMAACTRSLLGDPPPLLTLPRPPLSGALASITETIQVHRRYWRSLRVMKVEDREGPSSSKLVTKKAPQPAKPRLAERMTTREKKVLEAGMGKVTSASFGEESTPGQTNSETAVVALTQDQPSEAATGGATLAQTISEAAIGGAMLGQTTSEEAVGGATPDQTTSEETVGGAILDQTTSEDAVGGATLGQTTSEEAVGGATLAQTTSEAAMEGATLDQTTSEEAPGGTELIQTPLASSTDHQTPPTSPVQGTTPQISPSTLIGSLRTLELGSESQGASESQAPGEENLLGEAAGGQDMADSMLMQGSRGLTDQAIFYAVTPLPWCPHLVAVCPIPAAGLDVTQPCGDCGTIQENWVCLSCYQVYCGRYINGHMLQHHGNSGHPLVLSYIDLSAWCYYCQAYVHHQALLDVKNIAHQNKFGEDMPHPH
Experimental: as §3

[3] = Homo sapiens, MCF7, MCF-7, 48 h, read-out: GI50
[4] = Homo sapiens, A549, A-549, 48 h, read-out: GI50

| Structure (SMILES) | GI50 [1, 3] [µg/mL] | GI50 [2, 4] [µg/mL] | IC50 (HDAC1) [µM] | IC50 (HDAC6) [µM] | GI50 ([1]; MCF-7, 48 h) [µg/mL] | GI50 ([2]; A-549, 48 h) [µg/mL] |
| --- | --- | --- | --- | --- | --- | --- |
| O=C(CCC(=O)c1ccc(-n2ncc(-c3ccc(O)cc3)n2)cc1)NO [VI(e), N-Hydroxy-4-(4-(4-(4-hydroxyphenyl)-2H-1,2,3-triazol-2-yl)phenyl)-4-oxobutanamide] | < 10 | < 10 | 27.2 | 18.6 | – | – |
| O=C(CCC(=O)c1ccc(-n2ncc(-c3ccc(F)cc3)n2)cc1)NO [VI(f), 4-(4-(4-(4-Fluorophenyl)-2H-1,2,3-triazol-2-yl)phenyl)-N-hydroxy-4-oxobutanamide] | < 10 | 26.9 (≈ 76 µM) | – | – | – | – |
| COc1ccc(-c2cnn(-c3ccc(C(=O)CCC(=O)NO)cc3)n2)cc1 [VI(a), N-Hydroxy-4-(4-(4-(4-methoxyphenyl)-2H-1,2,3-triazol-2-yl)phenyl)-4-oxobutanamide] | 15.1 (≈ 41.3 µM) | 19.4 (≈ 52.8 µM) | – | – | – | – |
| Cc1ccc(-c2cnn(-c3ccc(C(=O)CCC(=O)NO)cc3)n2)cc1 [VI(d), N-Hydroxy-4-oxo-4-(4-(4-(p-tolyl)-2H-1,2,3-triazol-2-yl)phenyl)butanamide] | 12.9 (≈ 36.8 µM) | 14.7 (≈ 41.9 µM) | – | – | – | – |
| COc1ccc(-c2cnn(-c3ccc(C(=O)CCC(=O)NO)cc3)n2)cc1OC [VI(g), 4-(4-(4-(3,4-Dimethoxyphenyl)-2H-1,2,3-triazol-2-yl)phenyl)-N-hydroxy-4-oxobutanamide] | 15 (≈ 37.8 µM) | 53 (≈ 134 µM) | – | – | – | – |
| O=C(CCCCCn1ncc(-c2ccc(Cl)cc2)n1)NO [VI(h), 6-(4-(4-Chlorophenyl)-2H-1,2,3-triazol-2-yl)-N-hydroxyhexanamide] | 50 (≈ 162 µM) | > 80 | – | – | – | – |
| O=C(CCCCCn1ncc(-c2ccc(O)cc2)n1)NO [VI(j), N-Hydroxy-6-(4-(4-hydroxyphenyl)-2H-1,2,3-triazol-2-yl)hexanamide] | 17 (≈ 58.6 µM) | 50 (≈ 172 µM) | – | – | – | – |
| Cc1ccc(-c2cnn(CCCCCC(=O)NO)n2)cc1 [VI(k), N-Hydroxy-6-(4-(p-tolyl)-2H-1,2,3-triazol-2-Yl)hexanamide] | 14.9 (≈ 51.5 µM) | > 80 | – | – | – | – |
| O=C(CCC(=O)c1ccc(-n2ncc(-c3ccc([N+](=O)[O-])cc3)n2)cc1)NO [VI(b), N-Hydroxy-4-(4-(4-(4-nitrophenyl)-2H-1,2,3-triazol-2-yl)phenyl)-4-oxobutanamide] | < 10 | < 10 | 21.1 | 24.2 | – | – |
| COc1cccc2c1C(=O)c1c(O)c3c(c(O)c1C2=O)C[C@@](O)(C(=O)CO)C[C@@H]3O[C@H]1C[C@H](N)[C@H](O)[C@H](C)O1 [ADR, reference compound] | – | – | – | – | <10 | <10 |

Next, values leading:

| GI50 [1, 3] [µg/mL] | GI50 [2, 4] [µg/mL] | IC50 (HDAC1) [µM] | IC50 (HDAC6) [µM] | GI50 ([1]; MCF-7, 48 h) [µg/mL] | GI50 ([2]; A-549, 48 h) [µg/mL] | Structure (SMILES) |
| --- | --- | --- | --- | --- | --- | --- |
| > 80 | > 80 | – | – | – | – | O=C(CCc1ccc(-n2ncc(-c3ccc(Cl)cc3)n2)cc1)NO [VI(l), 3-(4-(4-(4-Chlorophenyl)-2H-1,2,3-triazol-2-Yl)phenyl)-N-hydroxypropanamide] |
| < 10 | < 10 | 21.2 | 31.7 | – | – | O=C(CCC(=O)c1ccc(-n2ncc(-c3ccc(Cl)cc3)n2)cc1)NO [VI(c), 4-(4-(4-(4-Chlorophenyl)-2H-1,2,3-triazol-2-yl)phenyl)-N-hydroxy-4-oxobutanamide] |
| > 80 | 62 (≈ 183 µM) | – | – | – | – | COc1ccc(-c2cnn(-c3ccc(CCC(=O)NO)cc3)n2)cc1 [VI(o), N-Hydroxy-3-(4-(4-(4-methoxyphenyl)-2H-1,2,3-triazol-2-Yl)phenyl)propanamide] |
| > 80 | > 80 | – | – | – | – | O=C(CCc1ccc(-n2ncc(-c3ccc(O)cc3)n2)cc1)NO [VI(n), N-Hydroxy-3-(4-(4-(4-hydroxyphenyl)-2H-1,2,3-triazol-2-yl)phenyl)propanamide] |
| > 80 | > 80 | – | – | – | – | Cc1ccc(-c2cnn(-c3ccc(CCC(=O)NO)cc3)n2)cc1 [VI(m), N-Hydroxy-3-(4-(4-(p-tolyl)-2H-1,2,3-triazol-2-yl)phenyl)propanamide] |
